This note sets out measurements from PubChem BioAssay (NCI).

The structures appear in SMILES notation.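 Following 48 hours of exposure in 96-well plates, responses at five concentrations were used to interpolate endpoints linearly. The concentration for 50% growth inhibition is given as GI50. Definition used: TGI = concentration required for complete inhibition of growth.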

Holding throughout (test): inhibition of tumour cell growth, NCI panel, 48 h
Test [1] concerns CCRF-CEM leukemia.
Test [2] relates to NCI/ADR-RES ovarian.
The test system of test [3] is M14 melanoma.
Test [4] deals with HCT-15 colon.
Test [5] relates to HCC-2998 colon.
Test [6] deals with SNB-19 CNS.
The subject of test [7] is OVCAR-4 ovarian.
Test [8] relates to OVCAR-5 ovarian.
For test [9], the system named is CAKI-1 renal.
In test [10] the test system is K-562 leukemia.

Regarding `Oc1ccc(/C=C/c2cc(O)cc3c2C(c2cc(O)cc(O)c2)C(c2ccc(O)c(O)c2)O3)cc1` (centres undefined), the TGI in test [1] is greater than 100 µM; in test [2] it was greater than 100 µM; in test [3] it was greater than 100 µM; in test [4] it was 45.4 µM; in test [5], 57.4 µM; in test [6], 54.3 µM. For the same compound, the TGI is 41.2 µM in [7], greater than 100 µM in test [8] and 98.1 µM in [9].
Regarding `COc1cc(C(=O)O[C@H](C(N)=O)[C@]2(C)CO2)c2cccc(C)c2c1`, the TGI in test [1] worked out at 5.94 µM; in [2], 0.507 µM; in test [3], 4.84 µM; in [4], 2.82 µM; in test [5] it was 0.54 µM; in test [6] it was 5.02 µM. For the same compound, the figures for the TGI in test [7] and in test [8] were greater than 26 µM and 6.01 µM, respectively. The GI50 was 0.108 µM in test [2]; 2.13 µM in test [3]; 0.282 µM in test [4]; 0.0257 µM in test [5]; 1.21 µM in test [6]; 0.766 µM in test [8]. In addition, the GI50 in [9] is less than 0.0211 µM.
Consider `Cc1sc2c(c1C)C(c1ccc(Cl)cc1)=N[C@@H](CC(=O)Nc1ccc(OCCOCCOCCOCCNc3cccc4c3C(=O)N(C3CCC(=O)NC3=O)C4=O)cc1)c1nnc(C)n1-2` (some centres undefined), for which the GI50 was less than 0.0222 µM in test [1]; greater than 52.8 µM in test [2]; 0.388 µM in test [3]; 0.394 µM in test [4]; 0.0796 µM in [5]; less than 0.0301 µM in [6]. Further, the results for the GI50 in [7], in test [8] and in test [10] were less than 0.0174 µM, less than 0.0465 µM and 0.293 µM, respectively. Also, the TGI in test [1], in test [2], in test [3], in [4], in test [5] and in test [6] was greater than 100 µM in each case. The TGI in test [7], in [8] and in test [10] was greater than 100 µM in each case.
With `c1ccc(NCCSc2nc3ccccc3s2)cc1`, the TGI in [1] is 31.7 µM; in test [2], greater than 100 µM; in test [3] it was greater than 100 µM; in test [4], 43 µM; in test [6], greater than 100 µM; in test [7], greater than 100 µM. Besides, the TGI in test [8], in [9] and in [10] was greater than 100 µM each time.
As for `COc1cc(/C=C2\CCC/C(=C\c3ccc(OCC4CO4)c(OC)c3)C2=O)ccc1OCC1CO1` (centres undefined), the GI50 was 2.5 µM in test [1]; 4.86 µM in test [2]; 1.94 µM in [3]; 2.04 µM in [4]; 2.25 µM in test [5]; 4.73 µM in test [6]. Further, the GI50 in [8] is 2.87 µM; in test [9] it was 3.3 µM; in test [10], 3.46 µM. Also, the TGI was greater than 100 µM in test [1]; greater than 100 µM in [2]; 3.99 µM in [3]; 4.59 µM in test [4]; 4.75 µM in test [5]; 76.4 µM in test [6]. Moreover, the figures for the TGI in test [8], in [9] and in [10] were 10.6 µM, greater than 100 µM and greater than 100 µM, respectively.
For the compound `Cc1c(Cl)cccc1NC(=O)c1cccc([N+](=O)[O-])c1O`, the TGI was 34.7 µM in [1]; greater than 78.9 µM in test [3]; greater than 100 µM in test [4]; 78.6 µM in [5]; greater than 100 µM in test [6]; greater than 70.1 µM in [7]. Besides, the TGI in test [8] was greater than 93.8 µM; in [9] it was greater than 64.1 µM; in test [10], greater than 82.7 µM.
In the case of `NCCCOc1cc(Cl)ccc1NC(=O)c1cc2ccccc2cc1OCCCN`, the GI50 in test [1] was 0.469 µM; in test [2], 1.97 µM; in test [4] it was 1.5 µM; in test [5] it was 1.39 µM; in [6], 1.62 µM; in test [7], 1.51 µM. Further, the GI50 in [8] is 1.42 µM; in test [9], 1.6 µM; in test [10] it was 1.72 µM. Besides, the TGI in test [1] was 2.54 µM; in [2], 4.25 µM; in [4] it was 3.2 µM; in test [5], 2.82 µM; in test [6], 3.21 µM; in test [7], 2.91 µM. Also, the values for the TGI in test [8], in [9] and in [10] were 3.01 µM, 3.64 µM and 4.12 µM, respectively.
For the compound `CC1CCC(C(C)(C)c2ccccc2)C(=O)C1` (centres undefined), the TGI in test [1], in test [3], in [4], in test [5], in [6] and in test [7] was greater than 100 µM in each case. In addition, the TGI in [8], in test [9] and in test [10] was greater than 100 µM each time.
In the case of `Cn1c(=S)c2[nH]c(SCCCc3ccccc3)nc2n(C)c1=O`, the TGI is 49.8 µM in [1]; greater than 100 µM in test [2]; greater than 100 µM in test [3]; greater than 100 µM in test [4]; 53.6 µM in test [6]; greater than 100 µM in test [7]. The values for the TGI in test [8], in test [9] and in [10] were 93.3 µM, greater than 100 µM and greater than 100 µM, respectively.
As to `C=C1C(O)C2C(=C(C)C13CC3)C(=O)C(C)(C)C2OC` (centres undefined), the GI50 is 78.3 µM in test [1]; greater than 100 µM in [2]; greater than 100 µM in test [4]; greater than 100 µM in test [5]; greater than 100 µM in [6]; greater than 100 µM in test [7]. Moreover, the GI50 in [8] is greater than 100 µM; in test [9], 71.8 µM; in test [10] it was 42.9 µM. Moreover, the TGI in [1], in [2], in [4], in test [5], in test [6] and in [7] was greater than 100 µM throughout. The TGI in test [8], in test [9] and in [10] was greater than 100 µM in each case.
With `COc1ccc(/C=C/c2cnccn2)cc1OC`, the TGI in test [2], in test [3], in test [4], in test [5], in test [6] and in test [7] was greater than 10 µM throughout. Also, the TGI in test [8] and in test [9] was greater than 10 µM in each case.
`CN(C)CCNc1nc2ccccc2c2c(=O)c3cc(F)ccc3sc12`: the GI50 was 2.22 µM in [1]; 1.63 µM in test [2]; 1.9 µM in test [3]; 1.57 µM in test [4]; 1.68 µM in [5]; 1.58 µM in test [8]. Besides, the GI50 in test [9] is 1.58 µM; in test [10], 2 µM. Moreover, the TGI in [1] worked out at 5 µM; in [2], 3.06 µM; in [3], 3.55 µM; in test [4], 3.08 µM; in test [5] it was 3.23 µM; in test [8], 2.95 µM. Further, the TGI in test [9] worked out at 2.93 µM; in test [10] it was 4.84 µM.
For `Cc1cc(NCCCCNc2ccnc3cc(Cl)ccc23)nc(Nc2ccc(C(=O)N3CCCCC3)cc2)n1`, the GI50 was 0.608 µM in test [1]; 3.04 µM in test [2]; 0.197 µM in test [3]; 1.28 µM in [4]; 1.82 µM in test [5]; 3.25 µM in test [6]. The GI50 is 1.6 µM in test [7], 3.04 µM in [8] and 1.75 µM in test [9]. Moreover, the TGI came out at 7.55 µM in test [1]; 11.4 µM in test [2]; 0.383 µM in test [3]; 3.13 µM in test [4]; 4.13 µM in test [5]; 13.3 µM in [6]. Further, the values for the TGI in test [7], in [8] and in [9] were 5.52 µM, 9.22 µM and 3.47 µM, respectively.
Turning to `O=C(NC1CCCCC1)c1ccc(Nc2ncnc3c2cnn3-c2ccccc2)cc1`, the GI50 in [1] was greater than 100 µM; in test [2], 7.06 µM; in test [3] it was 18.3 µM; in test [4], 99.3 µM; in test [5] it was greater than 100 µM; in test [6], 3.82 µM. The GI50 is 15.2 µM in test [8] and 14 µM in test [9]. Also, the TGI in test [1] is greater than 100 µM; in test [2], greater than 100 µM; in [3] it was greater than 100 µM; in test [4], greater than 100 µM; in [5], greater than 100 µM; in test [6], 18.9 µM. For the same compound, the TGI in test [8] is 95.2 µM; in [9], greater than 100 µM.
Take `CCc1nc(Cl)c(Cl)c(Cl)n1`: the TGI in [1], in test [2], in [3], in [4], in test [5] and in test [6] was greater than 100 µM in each case. Besides, the TGI in [7], in [8] and in test [10] was greater than 100 µM in each case.
For the compound `C[P+](C)(C)c1ccccc1`, the TGI in test [1], in test [3], in [4], in test [5], in test [6] and in test [7] was greater than 100 µM throughout. The TGI in test [8], in test [9] and in test [10] was greater than 100 µM throughout.
As to `O=C(N/N=C/c1ccc(O)cc1O)c1cccnc1`, the GI50 in test [1] was 0.971 µM; in [2], 3.26 µM; in test [3], 2.8 µM; in test [4], 0.614 µM; in test [5], 4.72 µM; in [6], 5.8 µM. Besides, the GI50 in [7] is 0.692 µM; in test [8] it was 14 µM; in test [9], 1.76 µM. The TGI in test [1] was greater than 100 µM; in test [2] it was greater than 100 µM; in [3], 19.6 µM; in [4], greater than 100 µM; in test [5], greater than 100 µM; in [6] it was greater than 100 µM. Besides, the TGI in test [7] was 11.9 µM; in [8], greater than 100 µM; in [9] it was 45.6 µM.
`Cc1ccc(C)c(N2C(=O)C(=O)C(c3nc4ccccc4o3)/C(=N\NC(=O)c3ccccc3O)C2=O)c1` (centres undefined): the TGI is 42.1 µM in test [1]; greater than 100 µM in [3]; greater than 100 µM in [4]; greater than 100 µM in [5]; greater than 100 µM in test [6]; 69.6 µM in [7]. Moreover, the TGI in test [8] is greater than 100 µM; in test [9], 18.5 µM; in test [10], 85.6 µM.
Turning to `CC(=O)NC1CONC1=O` (centres undefined), the TGI in test [1], in test [2], in test [3], in [4], in test [6] and in test [7] was greater than 100 µM each time. In addition, the TGI in test [8], in test [9] and in test [10] was greater than 100 µM each time.
For the compound `O=C1c2ccc3c4ccccc4n(-c4ccccc4)c3c2C(=O)N1c1ccc(Cl)cc1`, the TGI in test [1], in test [3], in test [4], in test [5], in test [6] and in test [7] was greater than 100 µM each time. In addition, the TGI in test [8], in test [9] and in [10] was greater than 100 µM each time.
On to `C=CCn1c(SCC(=O)Nc2ccc(C(=O)/C=C/c3cc(OC)c(OC)c(OC)c3)cc2)nnc1-c1ccc(OC)cc1`, for which the GI50 in [1] was 0.344 µM; in [2] it was 1.45 µM; in test [3], 0.404 µM; in test [4], 0.277 µM; in test [5] it was 0.175 µM; in test [6], 0.59 µM. The results for the GI50 in test [7] and in [10] were 0.783 µM and 0.363 µM, respectively. Moreover, the TGI in test [1] was greater than 100 µM; in test [2] it was 17.6 µM; in test [3], 2.58 µM; in test [4], 1.26 µM; in test [5], 0.379 µM; in test [6] it was 11.8 µM. For the same compound, the TGI in test [7] was 10.5 µM; in [10] it was greater than 100 µM.
